Experiments:
[1] = test system: GM-CFU in femoral bone marrow
Description: In the assay, B6D2F1 mice were treated with various doses of TER 286 intraperitoneally either as a single injection or as five daily injections. Femoral bone marrows were harvested 24 hours later and assayed for GM-CFU by the method of East, C. J. et al. Cancer Chemother Pharmacol (1992) 31:123-126.

[2] = molecular target: T1, recombinant human GST M1a-1a (Homo sapiens, UniProt P09488); assay: Decomposition of compound by GST M1a-1a followed by HPLC; type: biochemical; conditions: for IN VITRO HALF LIVES, M1a-1a: 3 μM recombinant human GST M1a-1a, compound 300 μM, disappearance by HPLC; for decomposition rate versus background, M1a: 37°
T1 sequence (P09488 2-218 limits assumed): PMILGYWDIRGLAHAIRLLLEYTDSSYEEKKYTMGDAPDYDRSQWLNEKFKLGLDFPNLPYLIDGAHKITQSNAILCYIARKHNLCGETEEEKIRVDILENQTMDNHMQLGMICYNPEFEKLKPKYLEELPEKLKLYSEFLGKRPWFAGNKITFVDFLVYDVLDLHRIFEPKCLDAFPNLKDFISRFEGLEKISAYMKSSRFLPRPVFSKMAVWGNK
Description: (§1) The compound to be tested was dissolved in 0.2M phosphate buffer and a solution of GST was added. The final concentration was 0.3 mM test compound and 0.006 mM GST, pH 7.3 for TER 230; for TER 231 GST was 0,003 mM, pH 7.1. The solution was incubated at 37°. Decomposition was followed by HPLC. The column was J. T. Baker C18 250×4.6 mm with 5μ particles. The A buffer was 0.05M ammonium acetate, pH 5.5; 5% CH3 CN; B buffer was 70% CH3 CN in A.
(§2) The column was run with a gradient of 20%-50% B over 15 min. then to 100% B in 3 mins; then back to 20% B over 6 mins. A 10 μL sample was injected and the flow rate was 1 ml/min. Aliquots were removed and catalytic decomposition was quenched by addition of acetic acid. Overnight HPLC utilizing an autosampler were used; the rates of decomposition were calculated by measuring the rate of disappearance of the peak versus an internal standard which was 0.06 mM of an inert peptide marker.
(§3) In addition, half-lives were determined as described above using 3 μM recombinant human GST P1-1, A1-1 or M1a-1a starting with a concentration of the compound to be tested at 300 μM and monitoring disappearance using HPLC.

[3] = molecular target: recombinant human GST P1-1 (Homo sapiens, UniProt P09211); assay: Decomposition of compound by GST P1-1 followed by HPLC; type: biochemical; conditions: for IN VITRO HALF LIVES, P1-1: 3 μM recombinant human GST P1-1, compound 300 μM, disappearance by HPLC; for decomposition rate versus background, P1: 37°
Description: as §1, §2, §3

[4] = molecular target: T2, recombinant human GST A1-1 (Homo sapiens, UniProt P08263); assay: Decomposition of compound by GST A1-1 followed by HPLC; type: biochemical; conditions: for IN VITRO HALF LIVES, A1-1: 3 μM recombinant human GST A1-1, compound 300 μM, disappearance by HPLC; for decomposition rate versus background, A1: 37°
T2 sequence (P08263 1-222): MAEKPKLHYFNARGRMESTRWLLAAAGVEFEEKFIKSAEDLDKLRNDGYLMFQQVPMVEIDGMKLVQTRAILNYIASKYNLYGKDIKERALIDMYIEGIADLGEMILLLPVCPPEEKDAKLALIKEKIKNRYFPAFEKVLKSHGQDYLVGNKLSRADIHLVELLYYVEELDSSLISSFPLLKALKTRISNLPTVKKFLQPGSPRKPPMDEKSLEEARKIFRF
Description: as §1, §2, §3

[5] = no GST; compound 300 μM; disappearance by HPLC
Description: as §1, §2, §3

[6] = test system: human GST P1-1, A1-1, M1a-1a; conditions: from in vitro half lives with 3 μM GST, 300 μM compound
Description: as §3

[7] = test system: HT29 human cancer cells; conditions: preliminary results
[8] = test system: MCF-7 cells transfected with GST P1-1; conditions: for sensitization of cells with high P1-1 levels compared to control-vector cells: 2 hours treatment, assayed on day 5, FIGS. 4a-4c
[9] = test system: MX-1 tumor; conditions: single intraperitoneal injection, 300 mg/kg or 400 mg/kg, monitored one month; FIG. 5
Description: The prodrugs of the invention were tested in Balb/C nu/nv mice. The mice were implanted subcutaneously with MX-1 tumor pieces and then treated with a single intraperitoneal injection once tumors reached an average of 100 mm^3 (which is at approximately day 18 post-implant). Tumor growth and body weight were monitored for one month following treatment. […] In FIG. 5, the squares represent controls; circles represent 300 mg/kg of TER 286; triangles represent 400 mg/kg of the same drug. The points shown are the mean ±SEM of 5-7 mice per group.

[10] = test system: MCF-7 cells selected for cyclophosphamide resistance (MCF-CTX); conditions: standard clonogenic assay
Description: Also tested were MCF-7 cells selected for cyclophosphamide resistance (MCF-CTX) and its wild-type counterpart.

[11] = 0.3 mM TER 231, GST 0,003 mM, pH 7.1, 0.2M phosphate buffer, FIG. 2
[12] = 0.3 mM TER 230, 0.006 mM GST, pH 7.3, 0.2M phosphate buffer, FIG. 1
[13] = TER 286 similarly tested, FIG. 3

Sequence of recombinant human GST P1-1 (P09211 2-210 limits assumed): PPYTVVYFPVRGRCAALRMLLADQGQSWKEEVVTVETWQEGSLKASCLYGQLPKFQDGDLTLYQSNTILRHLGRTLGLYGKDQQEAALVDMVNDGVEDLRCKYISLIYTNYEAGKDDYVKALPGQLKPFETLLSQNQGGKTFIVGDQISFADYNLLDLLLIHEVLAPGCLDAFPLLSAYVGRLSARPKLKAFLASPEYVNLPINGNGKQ

Row | Compound | IN VITRO HALF LIVES, M1a-1a [2] [min] | IN VITRO HALF LIVES, P1-1 [3] [min] | IN VITRO HALF LIVES, A1-1 [4] [min] | IN VITRO HALF LIVES, CONTROL [5] [min] | Selectivity (GST isoenzyme that selectively cleaves the prodrug) [6] | toxicity to HT29 cells [7] | sensitization of cells with high P1-1 levels compared to control-vector cells [8] [fold] | other results
1 | N[C@@H](Cc1ccc(N(CCCl)CCCl)cc1)C(=O)O [melphalan, reference compound] | – | – | – | – | – | – | – | toxicity with respect to bone marrow (GM-CFU) ([1]; FIG. 7): extreme toxicity
2 | NC(CCC(=O)NC(CS(=O)(=O)CCOP(=O)(N(CCCl)CCCl)N(CCCl)CCCl)C(=O)NCC(=O)O)C(=O)O (stereo not drawn) [TER 231, γ-Glutamyl-α-Aminopropionyl (β-(2-ethyl-N,N,N,N-tetra(2'-chloro)ethylphosphoroamidate)sulfonyl)gl ycine] | 25 | 110 | 110 | 350 | by M1a-1a | toxic to these cells | 2 | decomposition rate versus background, M1a [2, 11]: about 12 times faster than background; decomposition rate versus background, P1 [3, 11]: 5 times faster than background; decomposition rate versus background, A1 [4, 11]: 5 times faster than background; sensitivity of π-transfected MCF-7 cells versus untransfected cells ([8]; π-transfect with elevated P1 GST): more sensitive
3 | γ-glutamyl-α-Amino-β-(1-phenyl, (2'ethyl-N,N,N,N-tetra(2'-chloro)ethylphosphoroamidate)sulfonyl) propionyl glycine [TER 296] | 50 | 2.5 | 200 | – | selectively cleaved by P1-1 | – | – | –
4 | γ-glutamyl-α-Amino-β-((2-ethyl-N,N,N,N-tetra(2'-chloro)eth ylphosphoroamidate)sulfonyl)propionylphenylalanine [TER 303] | 200 | 310 | 45 | – | selectively cleaved by A1-1 | – | – | –
5 | CCN(CC)P(=O)(OCCS(=O)(=O)CC(NC(=O)CCC(N)C(=O)O)C(=O)NCC(=O)O)N(CC)CC (stereo not drawn) [TER 230, γ-glutamyl-α-aminopropionyl (β-(2-ethyl-N,N,N,N,tetraethylphosphoramidate)sulfonyl)-glycine] | – | – | – | – | – | is not | – | decomposition rate versus background, M1a [2, 12]: about 4 times faster than background; decomposition rate versus background, P1 [3, 12]: about 2 times faster than background; decomposition rate versus background, A1 [4, 12]: does not accelerate the decomposition of TER 230 above background
6 | NC(CCC(=O)NC(CS(=O)(=O)CCOP(=O)(N(CCCl)CCCl)N(CCCl)CCCl)C(=O)N[C@@H](C(=O)O)c1ccccc1)C(=O)O (stereo partly drawn) [TER 286, γ-glutamyl-α-Amino-β-((2-ethyl-N,N,N,N-tetra(2'-chloro) ethylphosphoroamidate)sulfonyl)propionyl-(R)-(-)phenylglycine] | 225 | 50 | 65 | 275 | selectively cleaved by P1-1 and A1-1 | – | 4 | acceleration of cleavage versus background, M1a-1a [2, 13]: negligible acceleration of cleavage; acceleration of cleavage versus background, P1-1 [3, 13]: roughly six; acceleration of cleavage versus background, A1-1 [4, 13]: roughly six; tumor volume in treated mice compared to controls [9]: greatly diminished; GM-CFU, % of controls ([1]; mouse, in vivo): up to 180%; optimum dosage range for bone marrow GM-CFU ([1]; mouse, in vivo): 100 to 200 mg/kg; factor by which CTX-resistant cells are more sensitive than CTX-sensitive cells [10]: 1.8

From patent US5556942A, “Glutathione S-transferase-activated compounds” (priority 1994, dated 1996)
